Laboratory results: the supplement of paper PMC13380429

Tests used:
Settings in all cases: 72 h
Caco-2 [1] = assay: cell viability relative to DMSO; higher = less toxic
Calu-3 [2] = assay: as above
HepG2 [3] = assay: as above
U2OS [4] = assay: as above
Vero E6 [5] = assay: as above
Caco-2 [6] = assay: relative viability EC50 (midpoint between 100% and the lowest measured viability); higher = less toxic
Calu-3 [7] = assay: as above
HepG2 [8] = assay: as above
U2OS [9] = assay: as above
Vero E6 [10] = assay: as above
Caco-2 [11] = assay: drug sensitivity score (DSS) for viability; higher = more toxic; extreme values may be limits of the assay
Calu-3 [12] = assay: as above
HepG2 [13] = assay: as above
U2OS [14] = assay: as above
Vero E6 [15] = assay: as above

Compound | cell viability (Caco-2 [1]; 1 nM) [%] | cell viability (Caco-2 [1]; 10 nM) [%] | cell viability (Caco-2 [1]; 100 nM) [%] | cell viability (Caco-2 [1]; 1000 nM) [%] | cell viability (Caco-2 [1]; 10000 nM) [%] | cell viability (Calu-3 [2]; 1 nM) [%] | cell viability (Calu-3 [2]; 10 nM) [%] | cell viability (Calu-3 [2]; 100 nM) [%] | cell viability (Calu-3 [2]; 1000 nM) [%] | cell viability (Calu-3 [2]; 10000 nM) [%] | cell viability (HepG2 [3]; 1 nM) [%] | cell viability (HepG2 [3]; 10 nM) [%] | cell viability (HepG2 [3]; 100 nM) [%] | cell viability (HepG2 [3]; 1000 nM) [%] | cell viability (HepG2 [3]; 10000 nM) [%] | cell viability (U2OS [4]; 1 nM) [%] | cell viability (U2OS [4]; 10 nM) [%] | cell viability (U2OS [4]; 100 nM) [%] | cell viability (U2OS [4]; 1000 nM) [%] | cell viability (U2OS [4]; 10000 nM) [%] | cell viability (Vero E6 [5]; 1 nM) [%] | cell viability (Vero E6 [5]; 10 nM) [%] | cell viability (Vero E6 [5]; 100 nM) [%] | cell viability (Vero E6 [5]; 1000 nM) [%] | cell viability (Vero E6 [5]; 10000 nM) [%] | relative viability EC50 (Caco-2 [6]) [µM] | relative viability EC50 (Calu-3 [7]) [µM] | relative viability EC50 (HepG2 [8]) [µM] | relative viability EC50 (U2OS [9]) [µM] | relative viability EC50 (Vero E6 [10]) [µM] | drug sensitivity score (Caco-2 [11]) | drug sensitivity score (Calu-3 [12]) | drug sensitivity score (HepG2 [13]) | drug sensitivity score (U2OS [14]) | drug sensitivity score (Vero E6 [15])
CCOC(=O)[C@H](CCc1ccccc1)N[C@@H](C)C(=O)N1Cc2ccccc2C[C@H]1C(=O)O [quinapril] | 95.7 | 99.6 | 92.1 | 96.3 | 88.5 | 95.2 | 102 | 103 | 97 | 96.5 | 106 | 98.9 | 110 | 93.6 | 94.7 | 98.1 | 100 | 95.1 | 101 | 93.9 | 104 | 97.9 | 102 | 90.4 | 97.8 | > 10 | > 10 | > 10 | > 10 | > 10 | 0 | 0 | 0 | 0 | 0
CCCN1CCC[C@@H]2Cc3n[nH]cc3C[C@H]21 [quinpirol-(-)] | 102 | 93.7 | 99.8 | 99.1 | 106 | 98.2 | 95.9 | 98.5 | 93.1 | 95.9 | 93.6 | 102 | 103 | 99.3 | 97.2 | 92.5 | 98.7 | 94.9 | 101 | 102 | 96.8 | 93.1 | 97.6 | 93.6 | 107 | > 10 | > 10 | > 10 | > 10 | > 10 | 0 | 0 | 0 | 0 | 0
CC(C)(C)c1cc(NC(=O)Nc2ccc(-c3cn4c(n3)sc3cc(OCCN5CCOCC5)ccc34)cc2)no1 [quizartinib] | 103 | 105 | 103 | 90.9 | 86.5 | 104 | 97.3 | 96.6 | 93.4 | 96.1 | 85.7 | 97.5 | 90.9 | 89 | 93.3 | 101 | 97.4 | 103 | 93.6 | 103 | 99.1 | 100 | 98.8 | 104 | 99.8 | > 10 | > 10 | > 10 | > 10 | > 10 | 0.6 | 0 | 0 | 0 | 0
CCN1CCC[C@H]1CNC(=O)c1c(OC)ccc(Br)c1OC [remoxipride] | 99.9 | 104 | 88.7 | 99.1 | 92.7 | 96.3 | 113 | 99.7 | 94.3 | 79.9 | 111 | 92 | 101 | 96.5 | 94.1 | 101 | 103 | 98 | 105 | 95.7 | 96.2 | 100 | 94.3 | 91.4 | 91.7 | > 10 | > 10 | > 10 | > 10 | > 10 | 0 | 1.3 | 0 | 0 | 0
O=C(Nc1ccccc1)c1ccccc1O [salicylanilide] | 80 | 101 | 112 | 102 | 90.6 | 107 | 100 | 102 | 90.9 | 111 | 102 | 96.6 | 94.4 | 94.6 | 75.6 | 95.9 | 96.9 | 97.1 | 93.8 | 97.5 | 95.9 | 98.4 | 98.4 | 100 | 99.9 | > 10 | > 10 | > 10 | > 10 | > 10 | 0 | 0 | 1.6 | 0 | 0
CC(C)[C@H](O)C(=O)N[C@@H](C)C(=O)N[C@@H]1C(=O)N(C)CCc2ccccc21 [semagacestat] | 96.2 | 107 | 98.2 | 102 | 92.6 | 95.8 | 94.8 | 94.7 | 99.8 | 98.1 | 99.7 | 105 | 114 | 96.3 | 92.1 | 99.9 | 100 | 94 | 96.8 | 92.3 | 102 | 101 | 99.9 | 100 | 99.4 | > 10 | > 10 | > 10 | > 10 | > 10 | 0 | 0 | 0 | 0 | 0
Cc1c(S(=O)(=O)O)oc2c1C(=O)C(=O)c1c-2ccc2c1CCCC2(C)C [sodium-tanshinone-II-A-sulfonate] | 97.7 | 96.3 | 109 | 93.2 | 102 | 90.2 | 100 | 101 | 99.1 | 98.6 | 106 | 92.2 | 116 | 95.9 | 107 | 96.4 | 99.7 | 91.1 | 99.6 | 94.6 | 103 | 100 | 97.5 | 84.5 | 94.1 | > 10 | > 10 | > 10 | > 10 | > 10 | 0 | 0 | 0 | 0 | 1.8
